# According to ChEMBL document CHEMBL1201862, “PubChem BioAssay data set” (2004):
#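 Dose response: 5 concentrations. Exposure: 48 h. Format: 96-well plates. Endpoint: linear interpolation; highest concentration if not reached. At the GI50, growth is halved.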 The source made the active and inactive calls. Cut-off read from the data, not from the text of the source: active = GI50 up to about 1.1 µM and inactive = higher.
# Tests used:
# Assay in all cases: DTP human tumour cell line panel, 48 h
# 786-0 = test system: 786-0
# M19-MEL = test system: M19-MEL
# A549 = test system: A549
# SK-MEL-28 = test system: SK-MEL-28
# COLO 205 = test system: COLO 205
# EKVX = test system: EKVX
# HCC 2998 = test system: HCC 2998
# SW-620 = test system: SW-620
# OVCAR-4 = test system: OVCAR-4
# U-251 = test system: U-251
# UACC-257 = test system: UACC-257
# CAKI-1 = test system: CAKI-1
# Hs-578T = test system: Hs-578T
# BT-549 = test system: BT-549
# T47D = test system: T47D
# MDA-MB-231 = test system: MDA-MB-231
# NCI/ADR-RES = test system: NCI/ADR-RES
# HL-60 = test system: HL-60
# RXF 393 = test system: RXF 393
# LOX IMVI = test system: LOX IMVI
SMILES,GI50 (786-0),GI50 (M19-MEL),GI50 (A549),GI50 (SK-MEL-28),GI50 (COLO 205),GI50 (EKVX),GI50 (HCC 2998),GI50 (SW-620),GI50 (OVCAR-4),GI50 (U-251),GI50 (UACC-257),GI50 (CAKI-1),GI50 (Hs-578T),GI50 (BT-549),GI50 (T47D),GI50 (MDA-MB-231),GI50 (NCI/ADR-RES),GI50 (HL-60),GI50 (RXF 393),GI50 (LOX IMVI)
COc1ccc(CCc2cc(OC)c(O)c(OC)c2)cc1,> 100 µM (inactive),57.1 µM (inactive),47.1 µM (inactive),19.6 µM (inactive),> 100 µM (inactive),> 100 µM (inactive),52 µM (inactive),37.4 µM (inactive),81.5 µM (inactive),41.8 µM (inactive),29.3 µM (inactive),42 µM (inactive),–,–,–,–,–,–,–,–
CC(=O)O[C@H]1CC[C@@]2(C)C(=CC[C@H]3[C@@H]4C[C@H](N5CCOCC5)[C@H](OC(C)=O)[C@@]4(C)CC[C@@H]32)C1,> 100 µM (inactive),–,> 100 µM (inactive),> 100 µM (inactive),> 100 µM (inactive),> 100 µM (inactive),> 100 µM (inactive),> 100 µM (inactive),> 100 µM (inactive),> 100 µM (inactive),> 100 µM (inactive),> 100 µM (inactive),> 100 µM (inactive),> 100 µM (inactive),> 100 µM (inactive),> 100 µM (inactive),> 100 µM (inactive),54.2 µM (inactive),42.4 µM (inactive),> 100 µM (inactive)
CN1CCN(CCCCNc2cc3c4ccccc4c(NCCCCN4CCN(C)CC4)cc3c3ccccc23)CC1,1.63 µM (inactive),–,1.37 µM (inactive),7.67 µM (inactive),2.36 µM (inactive),7.43 µM (inactive),1.81 µM (inactive),1.43 µM (inactive),1.36 µM (inactive),1.68 µM (inactive),4.79 µM (inactive),9.77 µM (inactive),2.38 µM (inactive),5.89 µM (inactive),18.6 µM (inactive),1.62 µM (inactive),2.47 µM (inactive),4.03 µM (inactive),1.41 µM (inactive),0.962 µM (active)
COc1ccc(OC)c(NC(=O)C(=O)NNC(=O)c2sc(NNC(C)=O)nc2C)c1,35.6 µM (inactive),60.1 µM (inactive),31.2 µM (inactive),61.2 µM (inactive),–,37.5 µM (inactive),45.1 µM (inactive),22.6 µM (inactive),26.3 µM (inactive),36.6 µM (inactive),23.6 µM (inactive),41.3 µM (inactive),–,–,–,–,–,36.2 µM (inactive),–,26.2 µM (inactive)
O=C(O)C(=Cc1ccc(-c2ccccc2)cc1)C(=O)O,14.8 µM (inactive),–,18 µM (inactive),15.8 µM (inactive),11.2 µM (inactive),> 100 µM (inactive),8.73 µM (inactive),11.3 µM (inactive),15.1 µM (inactive),12.5 µM (inactive),11.1 µM (inactive),14.5 µM (inactive),24.4 µM (inactive),8.79 µM (inactive),11 µM (inactive),14.9 µM (inactive),13.2 µM (inactive),7.53 µM (inactive),4.02 µM (inactive),9.75 µM (inactive)
CCCCOC(=O)C1CC[C@H]2[C@@H]3CCc4cc(OC(=O)c5cccc6c(=O)c7ccccc7[nH]c56)ccc4[C@H]3CC[C@]12C (some centres not stated),9.89 µM (inactive),–,9.35 µM (inactive),11 µM (inactive),7.29 µM (inactive),2.48 µM (inactive),8.87 µM (inactive),12.4 µM (inactive),7.78 µM (inactive),9.79 µM (inactive),8.47 µM (inactive),7.19 µM (inactive),12.9 µM (inactive),8.17 µM (inactive),7.33 µM (inactive),6.98 µM (inactive),11 µM (inactive),5.86 µM (inactive),9.48 µM (inactive),8.83 µM (inactive)
Cc1c(C#N)c2nc3ccccc3n2c(=O)/c1=C/Nc1ccc(Cl)cc1,6.25 µM (inactive),–,53.1 µM (inactive),> 100 µM (inactive),95.1 µM (inactive),50.7 µM (inactive),> 100 µM (inactive),> 100 µM (inactive),> 100 µM (inactive),7.66 µM (inactive),> 100 µM (inactive),11.3 µM (inactive),10.8 µM (inactive),22.7 µM (inactive),37.6 µM (inactive),24.8 µM (inactive),95.7 µM (inactive),> 100 µM (inactive),11.7 µM (inactive),30.4 µM (inactive)
CN1CCN(CN2C(=O)C3C4C=CC(C3C2=O)C2C(=O)N(CN3CCN(C)CC3)C(=O)C42)CC1 (configuration not stated),54 µM (inactive),–,> 10 µM (inactive),> 42.9 µM (inactive),54.6 µM (inactive),> 100 µM (inactive),> 57.4 µM (inactive),4.97 µM (inactive),> 100 µM (inactive),> 54.5 µM (inactive),> 75.2 µM (inactive),38.1 µM (inactive),> 100 µM (inactive),52.2 µM (inactive),> 68.4 µM (inactive),> 73.6 µM (inactive),> 60.4 µM (inactive),20.5 µM (inactive),27 µM (inactive),24.8 µM (inactive)
CC(C)C(C(=O)O)N1C(=O)c2ccccc2C1=O (configuration not stated),> 100 µM (inactive),–,> 100 µM (inactive),> 100 µM (inactive),> 100 µM (inactive),> 100 µM (inactive),> 100 µM (inactive),> 100 µM (inactive),> 100 µM (inactive),> 100 µM (inactive),> 100 µM (inactive),> 100 µM (inactive),> 100 µM (inactive),> 100 µM (inactive),> 100 µM (inactive),> 100 µM (inactive),> 100 µM (inactive),> 100 µM (inactive),> 100 µM (inactive),> 100 µM (inactive)
Oc1c(C(O)(c2ccccc2)c2ccc3ccccc3c2O)ccc2ccccc12,20 µM (inactive),–,12.1 µM (inactive),14.7 µM (inactive),17.2 µM (inactive),11.4 µM (inactive),6.87 µM (inactive),11.2 µM (inactive),8.93 µM (inactive),9.31 µM (inactive),10.2 µM (inactive),15 µM (inactive),7.03 µM (inactive),17.7 µM (inactive),2.96 µM (inactive),13.6 µM (inactive),13.2 µM (inactive),3.52 µM (inactive),8.87 µM (inactive),10.3 µM (inactive)
O=C(O)CCc1nc2c(n1-c1ccccc1)C(=O)c1ccccc1C2=O,> 100 µM (inactive),–,> 100 µM (inactive),> 100 µM (inactive),> 100 µM (inactive),> 100 µM (inactive),> 100 µM (inactive),> 100 µM (inactive),> 100 µM (inactive),> 100 µM (inactive),> 100 µM (inactive),> 100 µM (inactive),> 100 µM (inactive),> 100 µM (inactive),64.7 µM (inactive),> 100 µM (inactive),> 100 µM (inactive),> 100 µM (inactive),> 100 µM (inactive),70.5 µM (inactive)
CN(C)c1ccc(/C=C2\C[C@H]3[C@@H]4CCc5cc(OCCN6CCCC6)ccc5[C@H]4CC[C@]3(C)[C@H]2O)cc1,2.13 µM (inactive),–,6.32 µM (inactive),5.11 µM (inactive),13.5 µM (inactive),15 µM (inactive),5.7 µM (inactive),6.53 µM (inactive),16.3 µM (inactive),3.75 µM (inactive),6.11 µM (inactive),13.9 µM (inactive),21.8 µM (inactive),16 µM (inactive),23.3 µM (inactive),7.14 µM (inactive),19.3 µM (inactive),18.9 µM (inactive),13.7 µM (inactive),7.08 µM (inactive)
COc1cc(/C=C2\C[C@H]3[C@@H]4CC=C5C=C(N6CCCC6)CC[C@]5(C)[C@H]4CC[C@]3(C)C2=O)cc(OC)c1OC,2.84 µM (inactive),–,5.24 µM (inactive),4.55 µM (inactive),2.77 µM (inactive),3.75 µM (inactive),1.93 µM (inactive),3.91 µM (inactive),1.75 µM (inactive),1.96 µM (inactive),3.1 µM (inactive),2.84 µM (inactive),2.4 µM (inactive),2.12 µM (inactive),1.94 µM (inactive),2.4 µM (inactive),2.65 µM (inactive),1.13 µM (inactive),1.9 µM (inactive),1.48 µM (inactive)
CC(NC1=NCCO1)c1ccsc1 (configuration not stated),18.8 µM (inactive),–,39.4 µM (inactive),19 µM (inactive),17.9 µM (inactive),54.7 µM (inactive),69.3 µM (inactive),21.5 µM (inactive),24.9 µM (inactive),18.2 µM (inactive),14.4 µM (inactive),> 100 µM (inactive),11.5 µM (inactive),31.6 µM (inactive),33.3 µM (inactive),18.2 µM (inactive),> 100 µM (inactive),21.5 µM (inactive),33.5 µM (inactive),20.3 µM (inactive)
COP(=O)(O)/C=C/C(NC(=O)C(Cl)(Cl)Cl)c1ccccc1 (configuration not stated),> 100 µM (inactive),–,> 100 µM (inactive),> 100 µM (inactive),> 100 µM (inactive),> 100 µM (inactive),> 100 µM (inactive),> 100 µM (inactive),> 100 µM (inactive),> 100 µM (inactive),> 100 µM (inactive),> 100 µM (inactive),> 100 µM (inactive),> 100 µM (inactive),> 100 µM (inactive),> 100 µM (inactive),> 100 µM (inactive),> 100 µM (inactive),> 100 µM (inactive),> 100 µM (inactive)
